According to the supplement of paper PMC10307832:

Experiments:
Assay in all cases: relative viability (nuclei count vs DMSO), 5 days (fraction); higher = more cells survive
[1] = compound: CCCS(=O)(=O)Nc1ccc(F)c(C(=O)c2c[nH]c3ncc(-c4ccc(Cl)cc4)cc23)c1F [Vemurafenib] + O=C(CCCCCCC(=O)Nc1ccccc1)NO [Vorinostat] (partner 1 µM)
Outline: (§1)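 Lung cancer cell lines in 1536-well plates got either a single drug or a fixed anchor-drug dose together with five library-drug doses (not always all listed) in √10 steps, by pin tool, on the day after seeding. Nuclei were counted after 5 days, and relative viability is the treated-to-vehicle ratio of nuclei counts. Values are medians of duplicate plates.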

[2] = compound: COc1cccc2cc(-c3nc([C@H]4CC[C@H](C(=O)O)CC4)n4ncnc(N)c34)[nH]c12 [OSI-027] + Cc1cc(Nc2cc(N3CCN(C)CC3)nc(Sc3ccc(NC(=O)C4CC4)cc3)n2)n[nH]1 [Tozasertib] (partner 0.1 µM)
Outline: as §1

[3] = compound: Cc1nc(NC(=O)N2CCC[C@H]2C(N)=O)sc1-c1ccnc(C(C)(C)C(F)(F)F)c1 [Alpelisib] + NC(=O)Nc1cc(-c2cccc(F)c2)sc1C(=O)N[C@H]1CCCNC1 [AZD7762] (partner 0.2 µM)
Outline: as §1

[4] = compound: CCCS(=O)(=O)Nc1ccc(F)c(C(=O)c2c[nH]c3ncc(-c4ccc(Cl)cc4)cc23)c1F [Vemurafenib] + CC(=O)Nc1cccc(-n2c(=O)n(C3CC3)c(=O)c3c(Nc4ccc(I)cc4F)n(C)c(=O)c(C)c32)c1 [Trametinib] (partner 0.02 µM)
Outline: as §1

Cell Line | relative viability ([1]; first compound 0.03162 µM) | relative viability ([1]; first compound 0.1 µM) | relative viability ([1]; first compound 0.3162 µM) | relative viability ([1]; first compound 1 µM) | relative viability ([2]; first compound 0.01 µM) | relative viability ([2]; first compound 0.03162 µM) | relative viability ([2]; first compound 0.1 µM) | relative viability ([2]; first compound 0.3162 µM) | relative viability ([2]; first compound 1 µM) | relative viability ([3]; first compound 0.04 µM) | relative viability ([3]; first compound 0.1265 µM) | relative viability ([3]; first compound 0.4 µM) | relative viability ([3]; first compound 1.265 µM) | relative viability ([3]; first compound 4 µM) | relative viability ([4]; first compound 0.03162 µM) | relative viability ([4]; first compound 0.1 µM) | relative viability ([4]; first compound 0.3162 µM) | relative viability ([4]; first compound 1 µM)
NCI-H1793 | 0.652 | 0.426 | 0.78 | 0.702 | 0.284 | 0.313 | 0.28 | 0.239 | 0.209 | 0.473 | 0.332 | 0.383 | 0.374 | 0.23 | 0.397 | 0.387 | 0.467 | 0.591
NCI-H1915 | 0.468 | 0.468 | 0.455 | 0.478 | 0.488 | 0.445 | 0.525 | 0.475 | 0.404 | 0.688 | 0.713 | 0.69 | 0.676 | 0.611 | 0.308 | 0.26 | 0.328 | 0.358
NCI-H1944 | 0.538 | – | 0.671 | 0.515 | 0.239 | 0.251 | 0.22 | 0.221 | 0.175 | 0.452 | 0.6 | 0.605 | 0.3 | 0.344 | 0.453 | – | 0.41 | 0.423
NCI-H1975 | 0.715 | 0.661 | 0.602 | 0.726 | 1 | 0.778 | 0.746 | 0.66 | 0.478 | 0.731 | 0.621 | 0.731 | 0.463 | 0.374 | 0.328 | 0.327 | 0.259 | 0.281
NCI-H1993 | 0.739 | – | 1.02 | 0.876 | 0.574 | 0.56 | 0.546 | 0.49 | 0.456 | 0.722 | 0.656 | 0.695 | 0.539 | 0.472 | 0.5 | – | 0.555 | 0.609
NCI-H2085 | 0.703 | 0.736 | 0.618 | 0.968 | 0.785 | 0.654 | 0.741 | 0.784 | 0.568 | 0.946 | 0.781 | 1.09 | 0.944 | 0.865 | 0.529 | 0.477 | 0.663 | 0.621
NCI-H2087 | 0.894 | 0.958 | 0.531 | 0.716 | 0.228 | 0.254 | 0.257 | 0.234 | 0.188 | 1.39 | 1.3 | 1.59 | 1.22 | 1.36 | 0.204 | 0.14 | 0.292 | 0.256
NCI-H2126 | 0.761 | 0.576 | 0.869 | 0.633 | 0.811 | 0.848 | 0.725 | 0.745 | 0.538 | 0.998 | 1.01 | 0.945 | 0.904 | 0.769 | 0.513 | 0.535 | 0.564 | 0.543
NCI-H2170 | 0.733 | – | 0.737 | 0.754 | 0.71 | 0.658 | 0.603 | 0.733 | 0.435 | 0.865 | 0.712 | 0.891 | 0.632 | 0.481 | 0.888 | – | 0.846 | 0.89
NCI-H2342 | 0.623 | 0.785 | 0.755 | 0.787 | 0.445 | 0.509 | 0.492 | 0.449 | 0.421 | 0.477 | 0.421 | 0.506 | 0.497 | 0.426 | 0.921 | 0.747 | 0.978 | 0.769
NCI-H2347 | 0.542 | 0.539 | 0.52 | 0.624 | 0.362 | 0.467 | 0.58 | 0.564 | 0.317 | 0.756 | 0.661 | 0.815 | 0.81 | 0.764 | 0.266 | 0.215 | 0.263 | 0.251
NCI-H2405 | 0.911 | 0.987 | – | 1.03 | 0.754 | 0.715 | 0.76 | 0.79 | 0.467 | 0.763 | 0.728 | 0.686 | 0.446 | 0.428 | 0.622 | 0.473 | – | 0.608
NCI-H3122 | 0.962 | 0.916 | 1.01 | 1.04 | 0.542 | 0.38 | 0.385 | 0.434 | 0.287 | 0.989 | 1.03 | 0.978 | 0.693 | 0.589 | 0.219 | 0.271 | 0.243 | 0.304
PC-3 [JPC-3] | – | – | 0.66 | 1.06 | 1.03 | 0.808 | 0.844 | 0.841 | 0.351 | 0.808 | 0.755 | 0.781 | 0.601 | 0.516 | – | – | 0.649 | 0.802
PC-14 | 0.72 | – | 0.643 | 0.655 | 0.564 | 0.577 | 0.598 | 0.636 | 0.505 | 0.324 | 0.236 | 0.448 | 0.307 | 0.35 | 0.735 | – | 0.862 | 0.803
RERF-LC-KJ | 0.616 | 0.659 | 0.625 | 0.709 | 0.453 | 0.531 | 0.477 | 0.468 | 0.385 | 0.871 | 0.99 | 1.5 | 0.762 | 0.724 | 0.826 | 0.921 | 0.872 | 0.783
SW 900 | 0.41 | 0.466 | 0.636 | 0.379 | – | 0.548 | 0.493 | 0.589 | 0.483 | 0.629 | – | 0.545 | 0.546 | 0.519 | 0.939 | 0.593 | 0.778 | 0.868
